According to US20040058056A1, “Drug diffusion coatings, applications and methods” (priority 2003, published 2004):
Blank lines part the entries; values can stand above or below the compound they belong to.

Assays:
Format in all cases: physicochemical
[1] = Elution of NPC-15199 from PHEMA-coated stainless steel coupons with TMCTS plasma membrane; conditions: buffered saline pH 7.4, room temperature
Procedure: N-(9-fluorenylmethoxycarbonyl)-L-leucine (NPC-15199), an anti-inflammatory drug, was coated on a stainless steel coupon by dip-coating the coupon in a mixture of 20 mM NPC-15199 in a 60:40 solution of acetone:water containing 7.5% poly(2-hydroxyethyl methacrylate) (“PHEMA”). The coupon was then air dried for about 5 minutes at approximately 60° C. TMCTS plasma was deposited on different NPC-15199 coated coupons for 20, 40, 60 and 80 seconds, respectively. […] at pH 7.4 at room temperature. Elution of NPC-15199 was measured by change in absorbance using a spectrophotometer.
The plasma was generated at 83 W and 55 mTorr with a mass flow rate of 84 sccm; under these conditions a micro-thin siloxane membrane is deposited on the targeted surface, with the thickness directly related to the length of time of plasma deposition.

[2] = Elution of daunomycin from PHEMA-coated stainless steel coupons with TMCTS plasma membrane; conditions: buffered saline pH 7.4; absorbance at 480 nm; different TMCTS plasma deposition times
Procedure: Before drug application and plasma coating to 0.71 cm×0.71 cm 316 stainless steel coupon surfaces, all the coupons were cleaned with Acationox detergent, rinsed exhaustively with water, and air-dried. The coupons were then dip-coated in 80% ethanol containing 5% PHEMA and 5 mg/ml of daunomycin. After dipping, the coupons were wicked to remove excess solution, and air-dried under a gentle flow of warm air. Thereafter, the coated coupons were stored in the dark. The drug-coated coupons were then plasma-deposited with TMCTS for varying amounts of time. The plasma was generated at 83 W and 55 mTorr with a mass flow rate of 84 sccm of TMCTS monomer vapor. The coating thickness could be precisely controlled by plasma deposition time, with a coating thickness in the range of 5 to 200 nm.
The coupons were eluted in buffered saline at pH 7.4. The eluted drug was measured spectrophotometrically at 480 nm for daunomycin. The absorbance change was proportional to the concentration of daunomycin.

[3] = Elution of rapamycin from TMCTS plasma-coated stainless steel coupons in porcine serum
Procedure: The elution time of rapamycin from the surface of stainless steel coupons was evaluated as a function of plasma deposition time. One side of stainless steel coupons was coated with 100±10 μg of rapamycin dissolved in chloroform (0.2%, w/v). After air drying at room temperature, the coated surfaces were plasma coated with TMCTS. The plasma was generated at 83 W and 55 mTorr with a mass flow rate of 84 sccm at various time lengths between 30 and 300 seconds. The coated coupons were extracted with porcine serum mixed with 0.02% NaN3 as the preservative at 37° C. The remaining amounts of the drug on the coupon was extracted with 2 ml of methanol for 2 hours at room temperature and assayed by HPLC at 277 nm, utilizing an HPLC system calibrated with known amounts of rapamycin.

Structure (SMILES): CC(C)C[C@H](NC(=O)OCC1c2ccccc2-c2ccccc21)C(=O)O [NPC-15199, N-(9-fluorenylmethoxycarbonyl)-L-leucine]
- T1/2 (half-elution time) ([1]; TMCTS plasma deposition time 20 seconds): 0.833 min
- T1/2 (half-elution time) ([1]; TMCTS plasma deposition time 40 seconds): 1.67 min
- T1/2 (half-elution time) ([1]; TMCTS plasma deposition time 60 seconds): 2.5 min
- T1/2 (half-elution time) ([1]; TMCTS plasma deposition time 80 seconds): 4 min

Structure (SMILES): COc1cccc2c1C(=O)c1c(O)c3c(c(O)c1C2=O)C[C@@](O)(C(C)=O)C[C@@H]3O[C@H]1C[C@H](N)[C@H](O)[C@H](C)O1 [daunomycin]
- drug diffusion time [2]: controlled by the TMCTS coating thickness

- % Remaining ([3]; 0 (uncoated) TMCTS deposition, elution time 0 hours): 100%
- % Remaining ([3]; 0 (uncoated) TMCTS deposition, elution time 17 hours, porcine serum 37° C.): 0%
- % Remaining ([3]; TMCTS deposition 30 seconds, elution time 64 hours, porcine serum 37° C.): 2.6%
- Estimated Half-Life ([3]; TMCTS deposition 30 seconds, porcine serum 37° C.): 12 h
- % Remaining ([3]; TMCTS deposition 60 seconds, elution time 64 hours, porcine serum 37° C.): 33.2%
- Estimated Half-Life ([3]; TMCTS deposition 60 seconds, porcine serum 37° C.): 41 h
- % Remaining ([3]; TMCTS deposition 120 seconds, elution time 47.5 hours, porcine serum 37° C.): 67.7%
- Estimated Half-Life ([3]; TMCTS deposition 120 seconds, porcine serum 37° C.): 84 h
- % Remaining ([3]; TMCTS deposition 180 seconds, elution time 24 hours, porcine serum 37° C.): 76.3%
- Estimated Half-Life ([3]; TMCTS deposition 180 seconds, porcine serum 37° C.): 94 h
- % Remaining ([3]; TMCTS deposition 240 seconds, elution time 24 hours, porcine serum 37° C.): 93.6%
- Estimated Half-Life ([3]; TMCTS deposition 240 seconds, porcine serum 37° C.): 211 h
- % Remaining ([3]; TMCTS deposition 300 seconds, elution time 47.5 hours, porcine serum 37° C.): 91.9%
- Estimated Half-Life ([3]; TMCTS deposition 300 seconds, porcine serum 37° C.): 360 h
Structure (SMILES): CO[C@H]1C[C@@H]2CC[C@@H](C)[C@@](O)(O2)C(=O)C(=O)N2CCCC[C@H]2C(=O)O[C@H]([C@H](C)C[C@@H]2CC[C@@H](O)[C@H](OC)C2)CC(=O)[C@H](C)/C=C(\C)[C@@H](O)[C@@H](OC)C(=O)[C@H](C)C[C@H](C)/C=C/C=C/C=C/1C [rapamycin]
